{"source": "ChEMBL document CHEMBL1201862", "about": "“PubChem BioAssay data set” (2004)", "assay_in_all_cases": "NCI tumour cell line growth inhibition, 48 h", "key": {"M19-MEL": {"tested_on": "M19-MEL"}, "K562": {"tested_on": "K562"}, "DMS-114": {"tested_on": "DMS-114"}, "HOP-62": {"tested_on": "HOP-62"}, "KM-20L2": {"tested_on": "KM-20L2"}, "HL-60": {"tested_on": "HL-60"}, "HCC 2998": {"tested_on": "HCC 2998"}, "HT-29": {"tested_on": "HT-29"}, "NCI-H522": {"tested_on": "NCI-H522"}, "SR": {"tested_on": "SR"}, "HOP-18": {"tested_on": "HOP-18"}, "SK-MEL-28": {"tested_on": "SK-MEL-28"}, "LXFL 529": {"tested_on": "LXFL 529"}, "SNB-78": {"tested_on": "SNB-78"}, "SNB-75": {"tested_on": "SNB-75"}, "DLD-1": {"tested_on": "DLD-1"}, "COLO 205": {"tested_on": "COLO 205"}, "SNB-19": {"tested_on": "SNB-19"}, "HOP-92": {"tested_on": "HOP-92"}, "OVCAR-5": {"tested_on": "OVCAR-5"}, "HCT-15": {"tested_on": "HCT-15"}, "OVCAR-4": {"tested_on": "OVCAR-4"}, "MDA-N": {"tested_on": "MDA-N"}, "SF-295": {"tested_on": "SF-295"}, "MOLT-4": {"tested_on": "MOLT-4"}, "IGROV-1": {"tested_on": "IGROV-1"}, "Malme-3M": {"tested_on": "Malme-3M"}, "SN12C": {"tested_on": "SN12C"}, "M14": {"tested_on": "M14"}, "XF498": {"tested_on": "XF498"}, "SK-OV-3": {"tested_on": "SK-OV-3"}, "CCRF-CEM": {"tested_on": "CCRF-CEM"}, "SF-268": {"tested_on": "SF-268"}, "DMS-273": {"tested_on": "DMS-273"}, "786-0": {"tested_on": "786-0"}, "NCI-H23": {"tested_on": "NCI-H23"}, "UO-31": {"tested_on": "UO-31"}, "RXF 393": {"tested_on": "RXF 393"}, "ACHN": {"tested_on": "ACHN"}, "OVCAR-8": {"tested_on": "OVCAR-8"}, "OVCAR-3": {"tested_on": "OVCAR-3"}, "TK-10": {"tested_on": "TK-10"}, "RPMI-8226": {"tested_on": "RPMI-8226"}, "LOX IMVI": {"tested_on": "LOX IMVI"}, "UACC-62": {"tested_on": "UACC-62"}, "U-251": {"tested_on": "U-251"}, "KM12": {"tested_on": "KM12"}, "UACC-257": {"tested_on": "UACC-257"}, "EKVX": {"tested_on": "EKVX"}, "SK-MEL-2": {"tested_on": "SK-MEL-2"}, "SK-MEL-5": {"tested_on": "SK-MEL-5"}, "A498": {"tested_on": "A498"}, "SF-539": {"tested_on": "SF-539"}, "A549": {"tested_on": "A549"}, "RXF 631": {"tested_on": "RXF 631"}, "NCI-H226": {"tested_on": "NCI-H226"}, "SW-620": {"tested_on": "SW-620"}, "CAKI-1": {"tested_on": "CAKI-1"}, "NCI-H460": {"tested_on": "NCI-H460"}}, "note": "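Values below derive from 48-hour exposures of cells grown in 96-well plates, with endpoints linearly interpolated between the two concentrations bracketing the appropriate inhibition level. GI50 marks 50% less growth.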 Active and inactive are the calls of the source. No stated cut-off is given here; in the data, active = GI50 up to about 1.1 µM and inactive = higher.", "data": [{"smiles": "O=c1[nH]c2ccccc2n1C1CCN(CCCC(c2ccc(F)cc2)c2ccc(F)cc2)CC1", "note": "[PIMOZIDE]", "values": [{"measurement": "GI50", "setting": "M19-MEL", "result": "3.81 µM (inactive)"}, {"measurement": "GI50", "setting": "K562", "result": "2.88 µM (inactive)"}, {"measurement": "GI50", "setting": "DMS-114", "result": "2.22 µM (inactive)"}, {"measurement": "GI50", "setting": "HOP-62", "result": "10.7 µM (inactive)"}, {"measurement": "GI50", "setting": "KM-20L2", "result": "2.01 µM (inactive)"}, {"measurement": "GI50", "setting": "HL-60", "result": "2.37 µM (inactive)"}, {"measurement": "GI50", "setting": "HCC 2998", "result": "1.9 µM (inactive)"}, {"measurement": "GI50", "setting": "HT-29", "result": "2.55 µM (inactive)"}, {"measurement": "GI50", "setting": "NCI-H522", "result": "2.81 µM (inactive)"}, {"measurement": "GI50", "setting": "SR", "result": "2.5 µM (inactive)"}, {"measurement": "GI50", "setting": "HOP-18", "result": "15.6 µM (inactive)"}, {"measurement": "GI50", "setting": "SK-MEL-28", "result": "2.15 µM (inactive)"}, {"measurement": "GI50", "setting": "LXFL 529", "result": "3.73 µM (inactive)"}, {"measurement": "GI50", "setting": "SNB-78", "result": "15.1 µM (inactive)"}, {"measurement": "GI50", "setting": "SNB-75", "result": "10.8 µM (inactive)"}, {"measurement": "GI50", "setting": "DLD-1", "result": "5.74 µM (inactive)"}, {"measurement": "GI50", "setting": "COLO 205", "result": "1.69 µM (inactive)"}, {"measurement": "GI50", "setting": "SNB-19", "result": "14.5 µM (inactive)"}, {"measurement": "GI50", "setting": "HOP-92", "result": "3.9 µM (inactive)"}, {"measurement": "GI50", "setting": "OVCAR-5", "result": "8 µM (inactive)"}, {"measurement": "GI50", "setting": "HCT-15", "result": 3.1, "unit": "µM"}, {"measurement": "GI50", "setting": "OVCAR-4", "result": "8.59 µM (inactive)"}, {"measurement": "GI50", "setting": "MDA-N", "result": "9.77 µM (inactive)"}, {"measurement": "GI50", "setting": "SF-295", "result": "4.02 µM (inactive)"}, {"measurement": "GI50", "setting": "MOLT-4", "result": "3.67 µM (inactive)"}, {"measurement": "GI50", "setting": "IGROV-1", "result": "13.9 µM (inactive)"}, {"measurement": "GI50", "setting": "Malme-3M", "result": "2.05 µM (inactive)"}, {"measurement": "GI50", "setting": "SN12C", "result": "12.2 µM (inactive)"}, {"measurement": "GI50", "setting": "M14", "result": "2.7 µM (inactive)"}, {"measurement": "GI50", "setting": "XF498", "result": "4.17 µM (inactive)"}, {"measurement": "GI50", "setting": "SK-OV-3", "result": "12.8 µM (inactive)"}, {"measurement": "GI50", "setting": "CCRF-CEM", "result": "5.51 µM (inactive)"}, {"measurement": "GI50", "setting": "SF-268", "result": "12.1 µM (inactive)"}, {"measurement": "GI50", "setting": "DMS-273", "result": "3.45 µM (inactive)"}]}, {"smiles": "Cc1ccc(C2=NO[C@@H]3C(=O)N(c4ccc(Cc5ccc(N6C(=O)[C@H]7C(c8ccc(C)cc8)=NO[C@H]7C6=O)cc5)cc4)C(=O)[C@H]23)cc1", "values": [{"measurement": "GI50", "setting": "786-0", "result": "> 100 µM (inactive)"}, {"measurement": "GI50", "setting": "NCI-H23", "result": "> 100 µM (inactive)"}, {"measurement": "GI50", "setting": "M19-MEL", "result": "> 100 µM (inactive)"}, {"measurement": "GI50", "setting": "UO-31", "result": "> 100 µM (inactive)"}, {"measurement": "GI50", "setting": "RXF 393", "result": "> 100 µM (inactive)"}, {"measurement": "GI50", "setting": "ACHN", "result": "> 100 µM (inactive)"}, {"measurement": "GI50", "setting": "K562", "result": "> 100 µM (inactive)"}, {"measurement": "GI50", "setting": "DMS-114", "result": "> 100 µM (inactive)"}, {"measurement": "GI50", "setting": "HOP-62", "result": "> 100 µM (inactive)"}, {"measurement": "GI50", "setting": "OVCAR-8", "result": "> 100 µM (inactive)"}, {"measurement": "GI50", "setting": "KM-20L2", "result": "> 100 µM (inactive)"}, {"measurement": "GI50", "setting": "HL-60", "result": "> 100 µM (inactive)"}, {"measurement": "GI50", "setting": "OVCAR-3", "result": "> 100 µM (inactive)"}, {"measurement": "GI50", "setting": "HCC 2998", "result": "> 100 µM (inactive)"}, {"measurement": "GI50", "setting": "TK-10", "result": "> 100 µM (inactive)"}, {"measurement": "GI50", "setting": "HT-29", "result": "> 100 µM (inactive)"}, {"measurement": "GI50", "setting": "HOP-18", "result": "> 100 µM (inactive)"}, {"measurement": "GI50", "setting": "RPMI-8226", "result": "> 100 µM (inactive)"}, {"measurement": "GI50", "setting": "LOX IMVI", "result": "> 100 µM (inactive)"}, {"measurement": "GI50", "setting": "SK-MEL-28", "result": "> 100 µM (inactive)"}, {"measurement": "GI50", "setting": "LXFL 529", "result": "> 100 µM (inactive)"}, {"measurement": "GI50", "setting": "SNB-78", "result": "> 100 µM (inactive)"}, {"measurement": "GI50", "setting": "UACC-62", "result": "> 100 µM (inactive)"}, {"measurement": "GI50", "setting": "U-251", "result": "> 100 µM (inactive)"}, {"measurement": "GI50", "setting": "KM12", "result": "> 100 µM (inactive)"}, {"measurement": "GI50", "setting": "SNB-75", "result": "79.4 µM (inactive)"}, {"measurement": "GI50", "setting": "DLD-1", "result": "> 100 µM (inactive)"}, {"measurement": "GI50", "setting": "UACC-257", "result": "38.7 µM (inactive)"}, {"measurement": "GI50", "setting": "COLO 205", "result": "> 100 µM (inactive)"}, {"measurement": "GI50", "setting": "HOP-92", "result": "> 100 µM (inactive)"}, {"measurement": "GI50", "setting": "OVCAR-5", "result": "> 100 µM (inactive)"}, {"measurement": "GI50", "setting": "HCT-15", "result": "> 100", "unit": "µM"}, {"measurement": "GI50", "setting": "OVCAR-4", "result": "> 100 µM (inactive)"}, {"measurement": "GI50", "setting": "EKVX", "result": "> 100 µM (inactive)"}, {"measurement": "GI50", "setting": "SK-MEL-2", "result": "> 100 µM (inactive)"}, {"measurement": "GI50", "setting": "SK-MEL-5", "result": "> 100 µM (inactive)"}, {"measurement": "GI50", "setting": "A498", "result": "> 100 µM (inactive)"}, {"measurement": "GI50", "setting": "SF-539", "result": "> 100 µM (inactive)"}, {"measurement": "GI50", "setting": "SF-295", "result": "> 100 µM (inactive)"}, {"measurement": "GI50", "setting": "A549", "result": "> 100 µM (inactive)"}, {"measurement": "GI50", "setting": "RXF 631", "result": "> 100 µM (inactive)"}, {"measurement": "GI50", "setting": "MOLT-4", "result": "> 10 µM (inactive)"}, {"measurement": "GI50", "setting": "NCI-H226", "result": "> 100 µM (inactive)"}, {"measurement": "GI50", "setting": "IGROV-1", "result": "> 100 µM (inactive)"}, {"measurement": "GI50", "setting": "Malme-3M", "result": "> 100 µM (inactive)"}, {"measurement": "GI50", "setting": "SN12C", "result": "> 100 µM (inactive)"}, {"measurement": "GI50", "setting": "M14", "result": "> 100 µM (inactive)"}, {"measurement": "GI50", "setting": "XF498", "result": "> 100 µM (inactive)"}, {"measurement": "GI50", "setting": "SW-620", "result": "> 100 µM (inactive)"}, {"measurement": "GI50", "setting": "SK-OV-3", "result": "> 100 µM (inactive)"}, {"measurement": "GI50", "setting": "CAKI-1", "result": "> 100 µM (inactive)"}, {"measurement": "GI50", "setting": "CCRF-CEM", "result": "> 100 µM (inactive)"}, {"measurement": "GI50", "setting": "SF-268", "result": "> 100 µM (inactive)"}, {"measurement": "GI50", "setting": "NCI-H460", "result": "> 100 µM (inactive)"}, {"measurement": "GI50", "setting": "DMS-273", "result": "> 100 µM (inactive)"}]}]}
